US7374944B2, “Device and bioanalytical method utilizing asymmetric biofunctionalized membrane” (Purdue Research Foundation, priority 2001, dated 2008)

Legend:
[1] = Capacitance and single channel measurements of C20 bolalipid membranes; conditions: C20 bolalipid monolayer
[2] = Impedance measurements of supported bolalipid membranes on Au electrodes
Protocol: The effect of GA surface density on supported membrane impedance was determined using electrodes that had been coated with supported bolalipids by pretreatment with 2 prior to immersion for 24 hours into sonicated 1-GA vesicles containing varying amounts of GA. The 1-GA vesicle dispersions were prepared by sonicating dry 1-GA films in water (nominal GA:bolalipid molar ratios ranging from 1:500-1:50; 2 mM total lipid concentration). […] This observation is consistent with ^23Na NMR ion flux measurements made previously in our laboratory for gramicidin-containing 1 vesicles.
The effects of gramicidin loading on supported bolalipid membrane electrode impedance was further investigated in a sequential deposition experiment (FIG. 10). Adsorption of 2 onto Au electrodes for 1 hour to give partial surface coverage produced significant increases in impedance. Immersion of these pretreated electrodes into bolalipid vesicle solutions where gramicidin was either absent or present (i.e. 1 and 1-GA vesicles, respectively) produced membrane coated electrodes that had substantially different impedance characteristics in 10^−1-10^2 Hz frequency range. […]

gramicidin
ion flux across the membrane [1]: resulted in ion flux across the membrane | impedance of 2-treated electrode after immersion in 1-GA membrane solution ([2]; 1:100 molar ratio GA:1, 24 hours, compared with 2 or 2-1 coatings): observed impedances were lower | effect of GA surface density on supported membrane impedance ([2]; GA:bolalipid molar ratios 1:500-1:50, 1-10^3 Hz range): impedance decreases with increasing GA concentration
